Results published in patent US20090176773A1, “Non-Peptidic Inhibitors of AKAP/PKA Interaction” (FORSCHUNGSVERBUND BERLIN E.V., priority 2005, published 2009).
“Also recorded” adds a separate entry of the source. Where two headings read alike, the source gives them in different places.

How the values were obtained:
[1] = target: AKAP18delta-RIIalpha interaction (GST-AKAP18delta binding to plate-bound PKA-RIIalpha) (Rattus norvegicus, UniProt P12368+Q6JP77); experiment: ELISA for quantitative detection of protein-protein binding between PKA-RIIalpha and GST-AKAP18delta (library screening, validation, IC50); conditions: for Concentration dependence of the inhibitory effect in validation (dilution series): FIG. 15, 50 nM GST-AKAP18delta
AKAP18delta-RIIalpha interaction (GST-AKAP18delta binding to plate-bound PKA-RIIalpha) (Rattus norvegicus, UniProt P12368+Q6JP77), sequence (P12368 2-401): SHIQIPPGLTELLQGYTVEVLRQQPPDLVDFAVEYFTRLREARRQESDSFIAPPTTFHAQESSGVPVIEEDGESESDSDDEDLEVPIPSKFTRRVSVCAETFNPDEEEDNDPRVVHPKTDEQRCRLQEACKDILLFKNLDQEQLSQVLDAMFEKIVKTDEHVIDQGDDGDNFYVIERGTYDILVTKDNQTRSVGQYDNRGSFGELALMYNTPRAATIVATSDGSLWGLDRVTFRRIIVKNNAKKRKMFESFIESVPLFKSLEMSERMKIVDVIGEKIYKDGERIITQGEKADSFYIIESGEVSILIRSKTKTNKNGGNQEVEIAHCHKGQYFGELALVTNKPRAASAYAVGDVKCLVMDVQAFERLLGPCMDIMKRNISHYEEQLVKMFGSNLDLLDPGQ
AKAP18delta-RIIalpha interaction (GST-AKAP18delta binding to plate-bound PKA-RIIalpha) (Rattus norvegicus, UniProt P12368+Q6JP77), sequence (Q6JP77 whole entry): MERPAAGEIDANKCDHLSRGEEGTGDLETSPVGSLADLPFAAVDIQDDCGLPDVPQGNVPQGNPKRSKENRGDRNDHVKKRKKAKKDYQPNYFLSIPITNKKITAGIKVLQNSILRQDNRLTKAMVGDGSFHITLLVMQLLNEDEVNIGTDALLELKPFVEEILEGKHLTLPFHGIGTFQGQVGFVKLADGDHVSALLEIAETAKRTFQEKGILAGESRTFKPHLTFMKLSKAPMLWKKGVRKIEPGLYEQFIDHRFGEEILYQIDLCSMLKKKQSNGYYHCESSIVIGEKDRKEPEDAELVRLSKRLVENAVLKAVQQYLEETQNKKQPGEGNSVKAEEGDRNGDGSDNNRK
From the text: (§1) ELISA is a method wherein an antigen is detected with a specific antibody. Detection proceeds via an enzyme linked covalently with one of the binding partners, which enzyme catalyzes chromogen conversion.
(§2) Because one of the two binding partners is immobilized, removal of unbound antibodies or antigens is very easy. Detection proceeds via observing the intensity (I) of chemiluminescence using a photomultiplier in a special reading device (ELISA reader). The output of the measured values is in relative light units (RLU).
(§3) In the present case, the point was to investigate whether binding of one protein (PKA) to another (AKAP18delta-GST) would be inhibited by the presence of small organic molecules. A sandwich ELISA was therefore developed wherein the RIIalpha PKA subunit, to which AKAP proteins bind, was bound on 384-well microtiter plates (MTP).
(§4) The white color improves detection by reflection of the chemiluminescence being formed and simultaneously prevents illumination of neighboring wells. Free binding sites were blocked after binding (see below), and the second GST-AKAP18delta protein was added to […]. Subsequently, bound GST-AKAP18delta was quantified via antibodies and chemiluminescence. The principle of ELISA is illustrated in FIG. 4.
(§5) PBS (phosphate-buffered saline, pH 7.4) was used as buffer system to maintain a physiological pH value for the proteins used. The buffer was added with a mix of protease inhibitors and PMSF as non-specific protease inhibitor to delay protein degradation. In addition, DTT was employed to protect the proteins from oxidation.
(§6) The blocking solution additionally included 0.3% skim milk powder to saturate MTP non-specific binding sites with milk proteins included therein.
(§7) To adapt the binding curves to the measured values (see results), the one-site binding model was used as a basis, which model applies to binding of GST-AKAP18delta to RIIalpha. The corresponding formula is
(§8) The measured values for IC50 calculation were adapted to the one-site competition model. It was established that the bottom asymptote should be greater than 0.0 to rule out faulty adaptations with negative binding values. The formula used is
(§9) The FMP20000 substance library was used for screening, i.e., systematic, partially automated search for potential inhibitors of AKAP18delta-RIIalpha binding. […] The substances of the library had been selected according to specific criteria which also apply to previously known pharmacological active substances. Said criteria also include Lipinski's Rule (cf. discussion). To prepare an MTP for screening, each of 380 wells was filled with 20 μl of RIIalpha solution with a concentration of 0.75 ng/μl (in binding buffer), using an electronically controlled 24-channel pipette (Eppendorf). […] Following centrifugation of the MTPs (1 min at 2500×g), the MTPs were incubated at room temperature for at least 1 h. After removing the protein solution by tapping on a paper stack, non-specific binding sites were blocked with 100 μl of blocking solution/well for at least 1 h at room temperature.
(§10) After completion of the washing operation, solution residues possibly still present were tapped off on a paper stack.
(§11) In the next step, the MTPs were prepared for automated pipetting of the low-molecular weight substances. Each well was supplied with 10 μl of blocking solution or controls pipetted in accordance with the pipetting scheme (Table 1.2). […] The plates were briefly centrifuged.
(§12) Each of the control columns 1 and 24 received 0.5 μl of DMSO, so that the controls were added with the same amount of DMSO as the other samples.
(§13) Following centrifugation of the screening MTPs, AKAP18delta-GST (8 ng/μl in blocking solution) was added in accordance with the pipetting scheme (Table 2.2), centrifuged, and incubated for at least 30 min at room temperature.

[2] = tested on: vasopressin (AVP)-dependent redistribution of the aquaporin-2 (AQP2) water channel in renal principal cells (IMCD cells); experiment: AVP-induced redistribution of AQP2 in primarily cultured IMCD cells (immunofluorescence, laser scanning microscope); type: cell-based, rat; conditions: FIG. 18 and 21
Procedure: Initially, collecting duct cells from the inner medulla of rat kidneys (IMCD cells) can be stimulated with AVP in the presence or absence of the substances so as to stimulate AQP2 translocation. Thereafter, immunofluorescence staining can be performed, wherein the cells—following incubation—are fixed and made permeable. Using antibodies coupled to fluorescent dyes, the intracellular localization of AQP2 can subsequently be determined under a fluorescence microscope. In this way it is possible to investigate the influence of the substances on the presumably AKAP18delta-dependent translocation of AQP2.
Inhibition of the vasopressin (AVP)-dependent redistribution of the aquaporin-2 (AQP2) water channel in renal principal cells by the substances specified (see Table B; concentrations of inhibitors in μM). Primarily cultured principal cells from the inner medulla of rat kidneys (IMCD cells) represent a model for the AVP-induced translocation of AQP2. Said redistribution is the molecular basis of AVP-induced water reabsorption in the kidneys. AQP2 was detected by means of a specific antiserum and Cy3-labelled secondary antibodies in untreated cells (control) and in cells treated with AVP or substances, using a laser scanning microscope (Tamma et al., 2003; Henn et al., 2004).
Effect of the low-molecular weight substances 18882, 990 and 990 derivatives SM61 and SM65 on AVP-induced redistribution of AQP2 in IMCD cells (see FIG. 18). The structures and chemical properties of the substances are illustrated in Tables A, B and C (concentrations of inhibitors in μM). AQP2 was detected by means of a specific antiserum and Cy3-labelled secondary antibodies in untreated cells (control) and in cells treated with AVP or substances, using a laser scanning microscope (Tamma et al., 2003; Henn et al., 2004). […] In contrast, the substances 18882 and the 990 derivative SM65 have no influence on AVP-induced AQP2 redistribution at the concentrations used.

[3] = target: T1, AKAP18delta-RIIalpha interaction (GST-AKAP18delta binding to plate-bound PKA-RIIalpha) (UniProt P13861+Q6JP77); experiment: ELISA for quantitative detection of protein-protein binding between PKA-RIIalpha and GST-AKAP18delta (library screening, validation, IC50); conditions: increasing peptide concentrations, FIG. 11
T1 construct: made in house; host or cells: E. coli BL21(DE3), pGEX-4T3 vector (GST-AKAP18delta only)
T1 sequence (Q6JP77 whole entry): as above
T1 sequence (P13861 whole entry): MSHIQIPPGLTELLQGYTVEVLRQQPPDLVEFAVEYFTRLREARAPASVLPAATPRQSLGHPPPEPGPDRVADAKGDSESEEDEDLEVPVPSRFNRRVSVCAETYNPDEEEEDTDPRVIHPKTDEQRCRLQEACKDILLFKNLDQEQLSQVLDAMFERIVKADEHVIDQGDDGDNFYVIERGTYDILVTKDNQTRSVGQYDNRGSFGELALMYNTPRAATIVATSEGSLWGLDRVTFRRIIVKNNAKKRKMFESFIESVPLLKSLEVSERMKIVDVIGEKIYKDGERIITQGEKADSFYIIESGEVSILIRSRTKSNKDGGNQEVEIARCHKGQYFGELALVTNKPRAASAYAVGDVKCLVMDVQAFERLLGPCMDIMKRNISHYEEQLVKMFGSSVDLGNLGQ
From the text: as §1, §2, §3, §4, §5, §6, §7, §8, §9, §10, §11, §12, §13

| Structure (SMILES) | Ratio IC50 (comp./990) in Screening no. 2 [1] | Ratio IC50 (comp./990) in Screening no. 3 [1] | further results |
| --- | --- | --- | --- |
| C/N=C(\NCc1cccc2ccccc12)SCc1cccc2ccccc12 [JG23] |  |  | IC50 in Screening no. 3 ([1]; Table C, screening no. 3): bad |
| C/N=C(/NC1=NCCS1)SCc1cccc2ccccc12 [SM65] | 0.14 | 0.39 | Effect on AVP-induced redistribution of AQP2 [2]: no influence |
| CCNC(=S)NCc1cccc2ccccc12 [SM58] |  |  | Ratio IC50 (comp./990) in Screening no. 2 ([1]; Table C, screening no. 2, relative to substance 990): 986.12 |
| CN/C(=N\Cc1cccc2ccccc12)SCc1cccc2ccccc12 [SM61] | 0.16 | 0.32 | Effect on AVP-induced redistribution of AQP2 [2]: inhibits the AVP-induced redistribution of AQP2 |
| S=C(NCc1cccc2ccccc12)NC1CCCCC1 [SM59] | 343.88 |  |  |
| N=C(N)NCc1cccc2ccccc12 [SM51] | 88.35 |  |  |
| CC(C)(C)/N=C(\NCc1ccccc1)SCc1cccc2ccccc12 [JG20] |  | 0.74 |  |
| C/N=C(/NCCCc1ccccc1)SCc1ccc2ccccc2c1 [SM68] | 86.51 |  |  |
| C/N=C(/NC(C)c1ccccc1)SCc1ccc2ccccc2c1 (centres unmarked) [SM70] | 79.84 |  |  |
| CNC(=S)NCc1cccc2ccccc12 [SM57] | 4.16 |  |  |
| COc1ccc(CSC(=N)N)cc1Br [Compound 2348] |  |  | Concentration dependence of the inhibitory effect in validation (dilution series) [1]: non-active |
| c1ccc2c(C/N=C(\NC3CCCCC3)SCc3cccc4ccccc34)cccc2c1 [SM63] | 0.55 | 1.13 |  |
| N=C(NN)SCc1cccc2ccccc12 [SM55] | 2.45 |  |  |
| CC(C)C[C@H](NC(=O)[C@H](CCCNC(=N)N)NC(=O)[C@@H](NC(=O)[C@H](CC(C)C)NC(=O)[C@H](CCC(=O)O)NC(=O)[C@H](C)NC(=O)[C@H](CC(=O)O)NC(=O)[C@H](CCC(=O)O)NC(=O)[C@@H]1CCCN1)C(C)C)C(=O)N[C@@H](CO)C(=O)N[C@@H](CCCCN)C(=O)N[C@@H](CCCNC(=N)N)C(=O)N[C@@H](CC(C)C)C(=O)N[C@H](C(=O)N[C@@H](CCC(=O)O)C(=O)N[C@@H](CC(N)=O)C(=O)N[C@@H](C)C(=O)N[C@H](C(=O)N[C@@H](CCC(=O)O)C(=O)N[C@@H](CCCCN)C(=O)N[C@@H](C)C(=O)N[C@H](C(=O)N[C@@H](CCC(N)=O)C(=O)N[C@@H](CCC(N)=O)C(=O)N[C@@H](Cc1ccc(O)cc1)C(N)=O)C(C)C)C(C)C)C(C)C [Compound L314E, reference compound] |  |  | Concentration dependence of the inhibitory effect in validation (dilution series) [1]: inhibition of binding in a concentration-dependent fashion; Inhibition of GST-AKAP18delta binding to RIIalpha by peptides [3]: stronger inhibition of binding; also recorded: competitive inhibition of binding |
| CC(C)(C)/N=C(\NCc1cccc2ccccc12)SCc1cccc2ccccc12 [JG27] |  | 1.03 |  |
| C/N=C(/NC)SCc1cccc2ccccc12 [SM25] | 1.55 | 0.68 | Ratio IC50 (comp./990) in Screening no. 1 [1]: 0.97 |
| N=C(NCc1ccccc1)SCc1cccc2ccccc12 [SM53] | 3.20 | 1.13 |  |
| C/N=C(/NCCCc1ccccc1)SCc1cccc2ccccc12 [SM67] | 0.51 | 1.10 |  |
| CC(C)(C)/N=C(\NC1=NCCS1)SCc1cccc2ccccc12 [JG21] |  | 1.97 |  |
| C/N=C(/NC1=NCCS1)SCc1ccc2ccccc2c1 [SM66] | 30.29 |  |  |
| CC(C)/N=C(\NCc1cccc2ccccc12)SCc1cccc2ccccc12 [JG26] |  | 0.87 |  |
| CN/C(=N\c1cccc2cc3ccccc3cc12)SCc1cccc2ccccc12 [JG31] |  | 8.29 |  |
| CCNC(=N)SCc1cccc2ccccc12 [SM54] | 6.43 |  |  |
| C/N=C(/NC(C)c1ccccc1)SCc1cccc2ccccc12 (centres unmarked) [SM69] | 1.76 |  |  |
| S=C(NCCN1CCCCC1)Nc1cccc2ccccc12 [SM52] | 962.65 |  |  |
| C/N=C(/NCc1ccccc1)SCc1cccc2ccccc12 [SM71] | 0.41 | 0.45 |  |
| c1ccc2c(CN/C(=N\C3CCCCC3)SCc3cccc4ccccc34)cccc2c1 [JG25] |  | 0.26 |  |
| S=C(NCCN1CCCCC1)NCc1cccc2ccccc12 [SM56] | 592.04 |  |  |
| c1ccc(C/N=C(\NCc2cccc3ccccc23)SCc2cccc3ccccc23)cc1 [JG28] |  | 0.39 |  |
| C/N=C(/NCc1ccccc1)SCc1ccc2ccccc2c1 [SM72] | 55.39 |  |  |
